This experiment has as its system Mycobacterium tuberculosis. The experiment can be described thus: Antitubercular activity against Mycobacterium tuberculosis H37Rv after 7 days by resazurin microtiter assay. In kind it is functional. The conditions noted are these: 168 h. On the technique in general: Resazurin is reduced to fluorescent resorufin, in cell work by metabolically active cells.

The structures appear in SMILES notation. ≈ marks a conversion by molar mass, not a printed value. Some results are limits rather than exact numbers.

Broadly, the MIC is the least concentration at which growth counts as inhibited. Low readings indicate inhibition by little substance, high ones a need for much substance. For the compound `CCCCCCCC/C=C\CCCCCCCC(=O)N1CCCCC1`, inhibition of growth (MIC) required 50 µg/mL (≈ 143 µM).
Compound `CCCCCCCC/C=C\CCCCCCCC(=O)N1CCOCC1` returned an MIC of 25 µg/mL (≈ 71.1 µM).
As to `CCCCCC[C@@H](O)C/C=C\CCCCCCCC(=O)NCc1ccccc1`, the MIC was 25 µg/mL (≈ 64.5 µM).
In turn, `CCCCCC[C@@H](O)C/C=C\CCCCCCCC(=O)N[C@H](C)c1ccccc1` had an MIC of 100 µg/mL (≈ 249 µM).
In the case of `CCCCCC[C@@H](O)C/C=C\CCCCCCCC(=O)N[C@@H](C)c1ccccc1`, the MIC turned out to be 100 µg/mL (≈ 249 µM).
`CCCCCC[C@@H](O)C/C=C\CCCCCCCC(=O)N1CCCC1`: the MIC came to 12.5 µg/mL (≈ 35.6 µM).
Compound `CCCCCC[C@@H](O)C/C=C\CCCCCCCC(=O)N1CCOCC1` returned an MIC of 50 µg/mL (≈ 136 µM). This MIC is about 4-fold higher than that of the compound before.
`CCCCC/C=C\C/C=C\CCCCCCCC(=O)N[C@H](C)c1ccccc1` displayed a minimum inhibitory concentration (MIC) of 100 µg/mL (≈ 261 µM).
In the case of `CCCCC/C=C\C/C=C\CCCCCCCC(=O)N[C@@H](C)c1ccccc1` it was 50 µg/mL (≈ 130 µM); in that of `CCCCC/C=C\C/C=C\CCCCCCCC(=O)N1CCCC1`, 12.5 µg/mL (≈ 37.5 µM); in that of `CCCCCCCCCCCCCCCC(=O)N[C@H](C)c1ccccc1`, > 100 µg/mL.
Next, `CCCCCCCCCCCCCCCC(=O)N[C@@H](C)c1ccccc1`: > 100 µg/mL.
In the case of `CCCCCCCCCCCCCCCC(=O)N1CCCC1`, the MIC was found to be 25 µg/mL (≈ 80.8 µM).
In the case of `CCCCCCCCCCCCCCCC(=O)N1CCCCC1` it was 25 µg/mL (≈ 77.3 µM); in that of `CCCCCCCCCCCCCCCCCC(=O)N[C@H](C)c1ccccc1`, > 100 µg/mL; in that of `CCCCCCCCCCCCCCCCCC(=O)N[C@@H](C)c1ccccc1`, > 100 µg/mL.
`CCCCCCCC/C=C\CCCCCCCC(=O)N1CCCC1`: the lowest concentration to inhibit growth (MIC) was 25 µg/mL (≈ 74.5 µM).
Compound `CCCCCCCC/C=C\CCCCCCCC(=O)NCCO` [OLEOYLETHANOLAMIDE] had an MIC of 25 µg/mL (≈ 76.8 µM).
In the case of `CCCCCCCCCCCCCCCC(=O)NCCO` [PALMIDROL] it was > 100 µg/mL.
